“And” between values parts separate entries of the source, which are not always exact repeats. Equal entries are not always repeated. Where two headings read alike, the source gives them in different places.
Assays:
[1] = Efficacy study in obese young mammals; settings: oral, obese young animals, preliminary results
[2] = Efficacy study in obese adult mammals; settings: oral, obese adult animals, preliminary results
[3] = Efficacy study in chicken: abdominal fat pad and body weight gain; format: in vivo; settings: for Abdominal fat pad (% BW): day 21 to 42; for Influence on body weight gain (grams): gain during 21 to 42 days of age; for Reduction of fat pads: females; for Decrease of fat pads: males
Method: (§1) Three dietary treatments were used in this clinical study. […] After mixing, the diets were cold pelleted (65° C.).
The birds were transferred to grower cages on day 15 and a commercial broiler finisher diet (18.9% crude protein) was fed. […] Animals (of uniform body weight) were distributed into groups of 24 birds each. (Additional treatment groups than those shown here were used and dosed differently.) Each of the dietary treatments was then randomly assigned to the treatment groups. The diets were fed from day 21 and the animals were slaughtered on Day 42. Feed and water were available ad libitum throughout the study. Body weights were recorded at weekly intervals.

Beta-3 receptor = Beta-3 receptor (Homo sapiens, UniProt P13945); settings: results obtained from BRIDGE PHARMA, Inc.; read-out: Affinity for receptor (Ki) Beta-3; cited from earlier work
Chain of Beta-3 receptor (P13945 whole entry): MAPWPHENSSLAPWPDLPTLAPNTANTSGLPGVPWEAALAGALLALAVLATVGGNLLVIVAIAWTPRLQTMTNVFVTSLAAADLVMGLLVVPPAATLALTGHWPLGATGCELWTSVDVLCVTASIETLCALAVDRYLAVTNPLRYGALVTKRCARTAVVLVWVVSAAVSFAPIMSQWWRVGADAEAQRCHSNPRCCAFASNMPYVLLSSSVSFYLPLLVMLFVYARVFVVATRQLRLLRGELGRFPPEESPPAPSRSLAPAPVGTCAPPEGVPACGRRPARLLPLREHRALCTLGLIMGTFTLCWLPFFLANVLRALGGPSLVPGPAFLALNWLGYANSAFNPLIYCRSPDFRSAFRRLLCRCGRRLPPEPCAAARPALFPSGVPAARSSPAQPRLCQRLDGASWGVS

Cobb broilers = test: Safety study in chicken: mortality; format: in vivo; settings: Day 14 to Day 28, Cobb broilers
Method: as §1
Feed and water were available ad libitum. […] Mortality was recorded daily.

[4] = Reduction of body fat by the isomers of salbutamol; set-up: species or system mammals and birds; settings: in vivo
smooth muscle = settings: Yamaguchi et al. 1996; cited from earlier work
[5] = Method: Three dietary treatments were used in this clinical study. […] Sixty kilograms of each diet was prepared, and the drugs were mixed into the diets according to the standard operating procedures of the test facility. After mixing, the diets were cold pelleted (65° C.). The diets were analyzed for their concentration of test article immediately after the mixing and at predetermined intervals thereafter.
Day-old male broiler (Cobb) chicken were obtained from a commercial hatchery. The birds were raised in battery brooders housed in an environmentally controlled room and they received a commercial broiler starter diet from day 1 to 12. The birds were transferred to grower cages on day 12. On day 14, birds were weighed individually and birds with relatively high or low body weights were discarded. A total of 72 birds (of uniform body weight) were chosen and distributed into test groups so that average weights per test group were nearly equal. […] The diets were fed from day 14 to 28 and the animals were slaughtered on Day 29. Feed and water were available ad libitum. […] Mortality was recorded daily.

[6] = cited from earlier work; for Reduction of fat pad: Rehfeldt et al. 1997
[7] = female broilers, 10 ppm in feed

## α′[(tert-butylamino) methyl]-4-hydroxy-m-xylene-α,α′-diol [R-salbutamol]
[1]
  Effect on body fat: significantly decreases body fat
[2]
  Effect on body fat: significantly decreases body fat
[3]; female broilers, 5 ppm in feed
  Abdominal fat pad (% BW): 1.79 % BW
  Influence on body weight gain (grams): 1646 grams
[3]; [7]
  Abdominal fat pad (% BW): 1.77 % BW
  Influence on body weight gain (grams): 1614 grams
[3]; 5 ppm
  Reduction of fat pads: 19.4%
  Decrease of fat pads: 17.2%
[3]; 10 ppm
  Reduction of fat pads: 20.3%
  Decrease of fat pads: 17.7%
[3]; male broilers, 5 ppm in feed
  Abdominal fat pad (% BW): 1.64 % BW
  Influence on body weight gain (grams): 1886 grams
[3]; male broilers, 10 ppm in feed
  Abdominal fat pad (% BW): 1.63 % BW
  Influence on body weight gain (grams): 1887 grams
Beta-3 receptor
  Ki: > 10 µM
Cobb broilers; 5 ppm in feed
  Mortality (out of 24 birds): no fatalities and 0/24
[4]
  Reduction of fat content in the bodies of mammals and birds: potently and stereoselectively reducing the fat content

## CC(C)(C)NC[C@@H](O)c1ccc(O)c(CO)c1 [S-salbutamol]
Smooth muscle
  Smooth muscle hyperreactivity: causes smooth muscle hyperreactivity
[4]
  Reduction of fat content in the bodies of mammals and birds: did not reduce fat

## CC(C)(C)NCC(O)c1ccc(O)c(CO)c1 (racemic) [RS-salbutamol]
[5]; racemate-treated animals
  Tissue drug concentration: 61.3 ng/g
[5]; treatment 10 ppm RS-salbutamol in feed, Day 14 to Day 28
  Concentration of total salbutamol in liver: 61.3 ng of drug per g of liver
Cobb broilers; 10 ppm in feed
  Mortality (out of 24 birds): caused fatalities and 2/24

## CC(C)(C)NCC(O)c1cc(Cl)c(N)c(Cl)c1 (racemic) [clenbuterol, 4-amino-α-[(tert-butylamino)methyl]-3,5-dichlorobenzyl alcohol]
[6]; Dalrymple et al. 1984
  Effect on body weights of broiler chicken: increased
[6]; chicken, Hamano et al. 1998
  Effect on abdominal fat weight: could not find any effect
[6]; female chicken, Dalrymple et al. 1984
  Reduction of abdominal fat pad: 8.5%
[6]; female chicken
  Reduction of fat pad: 8.5%
[6]; male chicken, Dalrymple et al. 1984
  Reduction of abdominal fat pad: did not reduce
[6]; male chicken
  Reduction of fat pad: 6.0%

From patent publication US20050113456A1, “Method of decreasing fat deposits and body weight in mammals and birds” (priority 2003, published 2005)
